# From the SangsterLogP compilation
# Assay: method code SF, from DOI: 10.1007/bf01990207, PMID: 819289
# Details: pH 7.4
row,Compound,logD
1,[N-]=[N+]=CC(=O)NCC(=O)NCCO,-1.35
2,CC(C)CNC(=O)CNC(=O)C=[N+]=[N-],0.37
3,[N-]=[N+]=CC(=O)NCC(=O)NN,-0.76
4,CCCNC(=O)CNC(=O)C=[N+]=[N-],-0.24
5,CC(C)NC(=O)CNC(=O)C=[N+]=[N-],-0.41
6,CCNC(=O)CNC(=O)C=[N+]=[N-],-0.62
7,CNC(=O)CNC(=O)C=[N+]=[N-],-0.87
8,CCOC(=O)CNC(=O)C=[N+]=[N-],-0.08
9,[N-]=[N+]=CC(=O)NCC(N)=O,-1.26

# Assay: method code SF-AS, from DOI: 10.1007/bf01990207, PMID: 819289
# Details: pH 7.4
row,Compound,logD
1,CCCCCCNC(=O)CNC(=O)C=[N+]=[N-],1.51
